{
  "source": "patent US6225306A",
  "about": "“Biphenyl derivatives and drug composition” (Wakamoto Pharmaceutical Co., Ltd., priority 1997, dated 2001)",
  "tested_on": "Normal Conscious Rat",
  "assay": "Aquaretic Effects in Normal Conscious Rat (urine volume)",
  "assay_type": "in vivo, rat (Sprague-Dawley, male)",
  "experimental": "Aquaretic Effects in Normal Conscious Rat\nStudies were performed with Sprague-Dawley male SPF rats (body weight: 240 to 320 g; 8-week-old). In this experiment, each group consisted of not less than 4 animals and rats were fasted over 16 to 20 hours. The animals were acclimatized in metabolic cages for one hour, then each compound to be tested was dissolved in 100% N,N-dimethylformamide or suspended in 5% gum arabic solution and administered to these animals intravenously (iv.) in a dose of 3 mg/kg or orally (p.o.) in a dose of 30 mg/kg. Immediately after the test compound or vehicle were orally administered, saline (25 ml/kg) was given orally. Spontaneous voided urines were collected for 4 hours after the administration of the compound and the amount of the urine were determined. In this case, the control group consisted of animals to which only 5% gum arabic was orally administered.\nIn addition, known compounds of Comparative Examples 2 and Comparative Examples 3 and 4 represented by the following formulas were used as control compounds.",
  "data": [
    {"smiles": "Cc1ccc(-c2ccccc2C(=O)Nc2ccc(C(=O)N3C[C@H]4C[C@@H](O)CN4c4ccccc43)cc2)cc1", "note": "[Example 14, (2R,3aR)-2-Hydroxy-5-[4-[[2-(4-Tolyl) Benzoyl]Amino]Benzoyl]-1,2,3,3a-4,5-Hexahydro-Pyrrolo[1,2-a]Quinoxaline]", "values": [
      {"measurement": "Amount of Urine Volume", "setting": "3 mg/kg, i.v.", "value": 60.6, "unit": "ml/kg/0-4 hr."},
      {"measurement": "Amount of Urine Volume", "setting": "30 mg/kg, p.o.", "value": 90.3, "unit": "ml/kg/0-4 hr."}
    ]},
    {"smiles": "Cl.O=C(Nc1ccc(C(=O)N2C[C@H]3C[C@@H](O)CN3Cc3ccccc32)cc1)c1ccccc1-c1ccccc1", "note": "[Example 45, (2R,11aR)-2-Hydroxy-10-[4-[(2-Phenylbenzoyl) Amino]Benzoyl]-1,2,3,10,11,11a-Hexahydro-5H-Pyrrolo[2,1-c][1,4]Benzodiazepine Hydrochloride]", "values": [
      {"measurement": "Amount of Urine Volume", "setting": "3 mg/kg, i.v.", "value": 51.4, "unit": "ml/kg/0-4 hr."},
      {"measurement": "Amount of Urine Volume", "setting": "30 mg/kg, p.o.", "value": 93.9, "unit": "ml/kg/0-4 hr."}
    ]},
    {"smiles": "O=C(Nc1ccc(C(=O)N2CC[C@H]3CCCN3c3ccccc32)cc1)c1ccccc1-c1ccccc1", "note": "[Example 51, (3aR)-6-[4-[(2-Phenylbenzoyl) Amino]Benzoyl]-2,3,3a,4,5,6-Hexahydro-1H-Pyrrolo[1,2-a][1,5]Benzodiazepine]", "values": [
      {"measurement": "Amount of Urine Volume", "setting": "3 mg/kg, i.v.", "value": 63.8, "unit": "ml/kg/0-4 hr."},
      {"measurement": "Amount of Urine Volume", "setting": "30 mg/kg, p.o.", "value": 21.7, "unit": "ml/kg/0-4 hr."}
    ]},
    {"smiles": "O=C(Nc1ccc(C(=O)N2C[C@@H]3C[C@H](O)CN3c3ccccc32)cc1)c1ccccc1-c1ccccc1", "note": "[Example 7, (2S, 3aS)-2-Hydroxy-5-[4-[(2-Phenylbenzoyl) Amino]Benzoyl]-1,2,3,3a,4,5-Hexahydro-Pyrrolo[1,2-a]Quinoxaline]", "values": [
      {"measurement": "Amount of Urine Volume", "setting": "3 mg/kg, i.v.", "value": 29.3, "unit": "ml/kg/0-4 hr."},
      {"measurement": "Amount of Urine Volume", "setting": "30 mg/kg, p.o.", "value": 33.8, "unit": "ml/kg/0-4 hr."}
    ]},
    {"smiles": "Cc1ccc(-c2ccccc2C(=O)Nc2ccc(C(=O)N3C[C@H]4CCCN4c4ccccc43)cc2)cc1", "note": "[Example 12, (3aR)-5-[4-[[2-(4-Tolyl) Benzoyl]Amino]Benzoyl]-1,2,3,3a,4,5-Hexahydro-Pyrrolo[1,2-a]Quinoxaline]", "values": [
      {"measurement": "Amount of Urine Volume", "setting": "3 mg/kg, i.v.", "value": 66.0, "unit": "ml/kg/0-4 hr."},
      {"measurement": "Amount of Urine Volume", "setting": "30 mg/kg, p.o.", "value": 12.8, "unit": "ml/kg/0-4 hr."}
    ]},
    {"smiles": "CN(C)[C@H]1C[C@H]2CN(C(=O)c3ccc(NC(=O)c4ccccc4-c4ccccc4)cc3)c3ccccc3N2C1.Cl", "note": "[Example 10, (2S, 3aS)-2-(N,N-Dimethylamino)-5-[4-[(2-Phenylbenzoyl) Amino]Benzoyl]-1,2,3,3a,4,5-Hexahydro-Pyrrolo[1,2-a]Quinoxaline Hydrochloride]", "values": [
      {"measurement": "Amount of Urine Volume", "setting": "3 mg/kg, i.v.", "value": 22.2, "unit": "ml/kg/0-4 hr."},
      {"measurement": "Amount of Urine Volume", "setting": "30 mg/kg, p.o.", "value": 39.6, "unit": "ml/kg/0-4 hr."}
    ]},
    {"smiles": "O=C(Nc1ccc(C(=O)N2C[C@H]3C[C@H](F)CN3c3ccccc32)cc1)c1ccccc1-c1ccccc1", "note": "[Example 23, (2S, 3aR)-2-Fluoro-5-[4-[(2-Phenylbenzoyl) Amino]Benzoyl]-1,2,3,3a,4,5-Hexahydro-Pyrrolo[1,2-a]Quinoxaline]", "values": [
      {"measurement": "Amount of Urine Volume", "setting": "3 mg/kg, i.v.", "value": 27.2, "unit": "ml/kg/0-4 hr."},
      {"measurement": "Amount of Urine Volume", "setting": "30 mg/kg, p.o.", "value": 35.6, "unit": "ml/kg/0-4 hr."}
    ]},
    {"smiles": "O=C(Nc1ccc(C(=O)N2C[C@@H]3C[C@@H](O)CN3c3ccccc32)cc1)c1ccccc1-c1ccccc1", "note": "[Example 3]", "values": [
      {"measurement": "Amount of Urine Volume", "setting": "3 mg/kg, i.v.", "value": 29.5, "unit": "ml/kg/0-4 hr."},
      {"measurement": "Amount of Urine Volume", "setting": "30 mg/kg, p.o.", "value": 54.0, "unit": "ml/kg/0-4 hr."}
    ]},
    {"smiles": "O=C(Nc1ccc(C(=O)N2C[C@@H]3CCCN3c3ccccc32)cc1)c1ccccc1-c1ccccc1", "note": "[Example 1, (3aS)-5-[4-[(2-Phenylbenzoyl)Amino]Benzoyl]-1,2,3,3a,4,5-Hexahydro-Pyrrolo[1,2-a]Quinoxaline]", "values": [
      {"measurement": "Amount of Urine Volume", "setting": "3 mg/kg, i.v.", "value": 33.1, "unit": "ml/kg/0-4 hr."},
      {"measurement": "Amount of Urine Volume", "setting": "30 mg/kg, p.o.", "value": 40.3, "unit": "ml/kg/0-4 hr."}
    ]},
    {"smiles": "CN(C)C1CC2CCN(C(=O)c3ccc(NC(=O)c4ccccc4-c4ccccc4)cc3)c3ccccc3N2C1.Cl", "note": "[Example 56, (2S, 3aR)-2-(N,N-dimethylamino)-6-[4-[(2-phenylbenzoyl)amino]benzoyl]-2,3,3a,4,5,6-hexahydro-1H-Pyrrolo[1,2-a][1,5]benzodiazepinehydrochloride]", "values": [
      {"measurement": "Amount of Urine Volume", "setting": "3 mg/kg, i.v.", "value": 87.4, "unit": "ml/kg/0-4 hr."},
      {"measurement": "Amount of Urine Volume", "setting": "30 mg/kg, p.o.", "value": 116.4, "unit": "ml/kg/0-4 hr."}
    ]}
  ]
}
